Laboratory results reported in ChEMBL document CHEMBL3885881, “DrugMatrix”.

Species on record: Rattus norvegicus
Test: DrugMatrix - Regimen: Daily Repeat
Type: toxicity, organism-based, Sprague-Dawley
Parameters: regimen Daily Repeat, gender Male, age 6-8 weeks
Settings: in vivo, iv, vehicle 100 % SALINE; for ABSOLUTE BASOPHIL / ABSOLUTE EOSINOPHIL / ABSOLUTE LYMPHOCYTE / ABSOLUTE MONOCYTE / ABSOLUTE SEGMENTED NEUTROPHIL / BASOPHIL / EOSINOPHIL / ERYTHROCYTE COUNT / HEMATOCRIT / HEMOGLOBIN / LEUKOCYTE COUNT / LYMPHOCYTE / MEAN CORPUSCULAR HEMOGLOBIN / MEAN CORPUSCULAR HEMOGLOBIN CONCENTRATION / MEAN CORPUSCULAR VOLUME / MONOCYTE / NEUTROPHIL / NUCLEATED RED BLOOD CELLS / PLATELET COUNT: tissue Blood; for ALANINE AMINOTRANSFERASE / ALBUMIN / ALKALINE PHOSPHATASE / ASPARTATE AMINOTRANSFERASE / BLOOD UREA NITROGEN / CARBON DIOXIDE / CHLORIDE / CHOLESTEROL / CREATINE PHOSPHOKINASE / CREATININE / GLUCOSE / LACTATE DEHYDROGENASE / LIPASE / PHOSPHORUS / POTASSIUM / SODIUM / TOTAL BILIRUBIN / TOTAL PROTEIN / URIC ACID: tissue Plasma
[1] = 0 mg/kg, 72 h, dose level Control, time 3 day
[2] = 0 mg/kg, 120 h, dose level Control, time 5 day
[3] = […], 72 h, dose 0.15 mg/Kg, dose level Low, time 3 day
[4] = […], 72 h, dose 1.5 mg/Kg, dose level High, time 3 day

## CCC1=C[C@@H]2CN(C1)Cc1c([nH]c3ccccc13)[C@@](C(=O)OC)(c1cc3c(cc1OC)N(C)[C@H]1[C@@](O)(C(=O)OC)[C@H](OC(C)=O)[C@]4(CC)C=CCN5CC[C@]31[C@@H]54)C2 [VINORELBINE]
[1]
  ABSOLUTE BASOPHIL: 0 CELLS/uL
  ABSOLUTE EOSINOPHIL: 15.33 CELLS/uL
  ABSOLUTE LYMPHOCYTE: 9513.5 CELLS/uL
  ABSOLUTE MONOCYTE: 94.67 CELLS/uL
  ABSOLUTE SEGMENTED NEUTROPHIL: 709.83 CELLS/uL
  BASOPHIL: 0%
  EOSINOPHIL: 0.17%
  ERYTHROCYTE COUNT: 5.63 x10E6/uL
  HEMATOCRIT: 34.63%
  HEMOGLOBIN: 13.6 G/DL
  LEUKOCYTE COUNT: 10.33 x10E3/uL
  LYMPHOCYTE: 92%
  MEAN CORPUSCULAR HEMOGLOBIN: 24.17 pg
  MEAN CORPUSCULAR HEMOGLOBIN CONCENTRATION: 39.28 G/DL
  MEAN CORPUSCULAR VOLUME: 61.57 fL
  MONOCYTE: 0.83%
  NEUTROPHIL: 7%
  NUCLEATED RED BLOOD CELLS: 0 /100WBC
  PLATELET COUNT: 903.17 x10E3/uL
  ALANINE AMINOTRANSFERASE: 49.33 u/L
  ALBUMIN: 4.27 G/DL
  ALKALINE PHOSPHATASE: 400.83 u/L
  ASPARTATE AMINOTRANSFERASE: 77.5 u/L
  BLOOD UREA NITROGEN: 16.33 mg/dL
  CARBON DIOXIDE: 29.33 mmol/L
  CHLORIDE: 99.67 MEQ/L
  CHOLESTEROL: 66.67 mg/dL
  CREATINE PHOSPHOKINASE: 275.33 u/L
  CREATININE: 0.18 mg/dL
  GLUCOSE: 163.83 mg/dL
  LACTATE DEHYDROGENASE: 125.33 u/L
  LIPASE: 10 u/L
  PHOSPHORUS: 12.12 mg/dL
  POTASSIUM: 6.68 MEQ/L
  SODIUM: 144.02 MEQ/L
  TOTAL BILIRUBIN: 0.18 mg/dL
  TOTAL PROTEIN: 5.87 G/DL
  URIC ACID: 1.63 mg/dL
[2]
  ABSOLUTE BASOPHIL: 0 CELLS/uL
  ABSOLUTE EOSINOPHIL: 48.83 CELLS/uL
  ABSOLUTE LYMPHOCYTE: 14562 CELLS/uL
  ABSOLUTE MONOCYTE: 138.67 CELLS/uL
  ABSOLUTE SEGMENTED NEUTROPHIL: 1733.83 CELLS/uL
  BASOPHIL: 0%
  EOSINOPHIL: 0.33%
  ERYTHROCYTE COUNT: 5.89 x10E6/uL
  HEMATOCRIT: 36.7%
  HEMOGLOBIN: 14.42 G/DL
  LEUKOCYTE COUNT: 16.48 x10E3/uL
  LYMPHOCYTE: 88.83%
  MEAN CORPUSCULAR HEMOGLOBIN: 24.52 pg
  MEAN CORPUSCULAR HEMOGLOBIN CONCENTRATION: 39.3 G/DL
  MEAN CORPUSCULAR VOLUME: 62.37 fL
  MONOCYTE: 0.67%
  NEUTROPHIL: 10.17%
  NUCLEATED RED BLOOD CELLS: 0 /100WBC
  PLATELET COUNT: 1076.5 x10E3/uL
  ALANINE AMINOTRANSFERASE: 44.67 u/L
  ALBUMIN: 4.23 G/DL
  ALKALINE PHOSPHATASE: 357.33 u/L
  ASPARTATE AMINOTRANSFERASE: 84.83 u/L
  BLOOD UREA NITROGEN: 15.5 mg/dL
  CARBON DIOXIDE: 27 mmol/L
  CHLORIDE: 99.5 MEQ/L
  CHOLESTEROL: 63.67 mg/dL
  CREATINE PHOSPHOKINASE: 331.33 u/L
  CREATININE: 0.18 mg/dL
  GLUCOSE: 167.33 mg/dL
  LACTATE DEHYDROGENASE: 320.17 u/L
  LIPASE: 9.17 u/L
  PHOSPHORUS: 12.05 mg/dL
  POTASSIUM: 6.54 MEQ/L
  SODIUM: 143.02 MEQ/L
  TOTAL BILIRUBIN: 0.2 mg/dL
  TOTAL PROTEIN: 6.23 G/DL
  URIC ACID: 2.07 mg/dL
[3]
  ABSOLUTE BASOPHIL: 0 CELLS/uL
  ABSOLUTE EOSINOPHIL: 49.67 CELLS/uL
  ABSOLUTE LYMPHOCYTE: 13595.67 CELLS/uL
  ABSOLUTE MONOCYTE: 462 CELLS/uL
  ABSOLUTE SEGMENTED NEUTROPHIL: 1292.67 CELLS/uL
  BASOPHIL: 0%
  EOSINOPHIL: 0.33%
  ERYTHROCYTE COUNT: 5.91 x10E6/uL
  HEMATOCRIT: 37.77%
  HEMOGLOBIN: 14.97 G/DL
  LEUKOCYTE COUNT: 15.4 x10E3/uL
  LYMPHOCYTE: 87.67%
  MEAN CORPUSCULAR HEMOGLOBIN: 25.3 pg
  MEAN CORPUSCULAR HEMOGLOBIN CONCENTRATION: 39.63 G/DL
  MEAN CORPUSCULAR VOLUME: 63.93 fL
  MONOCYTE: 3%
  NEUTROPHIL: 9%
  NUCLEATED RED BLOOD CELLS: 0 /100WBC
  PLATELET COUNT: 1301 x10E3/uL
[4]
  ABSOLUTE BASOPHIL: 0 CELLS/uL
  ABSOLUTE EOSINOPHIL: 0 CELLS/uL
  ABSOLUTE LYMPHOCYTE: 5207.33 CELLS/uL
  ABSOLUTE MONOCYTE: 23 CELLS/uL
  ABSOLUTE SEGMENTED NEUTROPHIL: 236.33 CELLS/uL
  BASOPHIL: 0%
  EOSINOPHIL: 0%
  ERYTHROCYTE COUNT: 5.25 x10E6/uL
  HEMATOCRIT: 33.27%
  HEMOGLOBIN: 13.3 G/DL
  LEUKOCYTE COUNT: 5.47 x10E3/uL
  LYMPHOCYTE: 95.33%
  MEAN CORPUSCULAR HEMOGLOBIN: 25.4 pg
  MEAN CORPUSCULAR HEMOGLOBIN CONCENTRATION: 40 G/DL
  MEAN CORPUSCULAR VOLUME: 63.43 fL
  MONOCYTE: 0.33%
  NEUTROPHIL: 4.33%
  NUCLEATED RED BLOOD CELLS: 0.33 /100WBC
  PLATELET COUNT: 808.33 x10E3/uL
